Experimental data reported in US9562035B2, “Benzamide derivative useful as FASN inhibitors for the treatment of cancer” (Janssen Pharmaceutica NV, priority 2013, dated 2017).

Tests used:
[1] = target: T1, hFASN enzyme (full length) (Homo sapiens, UniProt P49327); assay: Fatty Acid Synthase (FASN) Inhibition Scintillation Proximity Assay; type: biochemical; conditions: for IC50: mean where tested more than once, ~ = standard error of pIC50 larger than 0.5; for inhibition at 10 µM: read-out: FASN % Effect @1E−05M
T1 construct: 10 μL hFASN enzyme (full length, 300 ng, purified in house); made in house
T1 sequence (P49327 whole entry): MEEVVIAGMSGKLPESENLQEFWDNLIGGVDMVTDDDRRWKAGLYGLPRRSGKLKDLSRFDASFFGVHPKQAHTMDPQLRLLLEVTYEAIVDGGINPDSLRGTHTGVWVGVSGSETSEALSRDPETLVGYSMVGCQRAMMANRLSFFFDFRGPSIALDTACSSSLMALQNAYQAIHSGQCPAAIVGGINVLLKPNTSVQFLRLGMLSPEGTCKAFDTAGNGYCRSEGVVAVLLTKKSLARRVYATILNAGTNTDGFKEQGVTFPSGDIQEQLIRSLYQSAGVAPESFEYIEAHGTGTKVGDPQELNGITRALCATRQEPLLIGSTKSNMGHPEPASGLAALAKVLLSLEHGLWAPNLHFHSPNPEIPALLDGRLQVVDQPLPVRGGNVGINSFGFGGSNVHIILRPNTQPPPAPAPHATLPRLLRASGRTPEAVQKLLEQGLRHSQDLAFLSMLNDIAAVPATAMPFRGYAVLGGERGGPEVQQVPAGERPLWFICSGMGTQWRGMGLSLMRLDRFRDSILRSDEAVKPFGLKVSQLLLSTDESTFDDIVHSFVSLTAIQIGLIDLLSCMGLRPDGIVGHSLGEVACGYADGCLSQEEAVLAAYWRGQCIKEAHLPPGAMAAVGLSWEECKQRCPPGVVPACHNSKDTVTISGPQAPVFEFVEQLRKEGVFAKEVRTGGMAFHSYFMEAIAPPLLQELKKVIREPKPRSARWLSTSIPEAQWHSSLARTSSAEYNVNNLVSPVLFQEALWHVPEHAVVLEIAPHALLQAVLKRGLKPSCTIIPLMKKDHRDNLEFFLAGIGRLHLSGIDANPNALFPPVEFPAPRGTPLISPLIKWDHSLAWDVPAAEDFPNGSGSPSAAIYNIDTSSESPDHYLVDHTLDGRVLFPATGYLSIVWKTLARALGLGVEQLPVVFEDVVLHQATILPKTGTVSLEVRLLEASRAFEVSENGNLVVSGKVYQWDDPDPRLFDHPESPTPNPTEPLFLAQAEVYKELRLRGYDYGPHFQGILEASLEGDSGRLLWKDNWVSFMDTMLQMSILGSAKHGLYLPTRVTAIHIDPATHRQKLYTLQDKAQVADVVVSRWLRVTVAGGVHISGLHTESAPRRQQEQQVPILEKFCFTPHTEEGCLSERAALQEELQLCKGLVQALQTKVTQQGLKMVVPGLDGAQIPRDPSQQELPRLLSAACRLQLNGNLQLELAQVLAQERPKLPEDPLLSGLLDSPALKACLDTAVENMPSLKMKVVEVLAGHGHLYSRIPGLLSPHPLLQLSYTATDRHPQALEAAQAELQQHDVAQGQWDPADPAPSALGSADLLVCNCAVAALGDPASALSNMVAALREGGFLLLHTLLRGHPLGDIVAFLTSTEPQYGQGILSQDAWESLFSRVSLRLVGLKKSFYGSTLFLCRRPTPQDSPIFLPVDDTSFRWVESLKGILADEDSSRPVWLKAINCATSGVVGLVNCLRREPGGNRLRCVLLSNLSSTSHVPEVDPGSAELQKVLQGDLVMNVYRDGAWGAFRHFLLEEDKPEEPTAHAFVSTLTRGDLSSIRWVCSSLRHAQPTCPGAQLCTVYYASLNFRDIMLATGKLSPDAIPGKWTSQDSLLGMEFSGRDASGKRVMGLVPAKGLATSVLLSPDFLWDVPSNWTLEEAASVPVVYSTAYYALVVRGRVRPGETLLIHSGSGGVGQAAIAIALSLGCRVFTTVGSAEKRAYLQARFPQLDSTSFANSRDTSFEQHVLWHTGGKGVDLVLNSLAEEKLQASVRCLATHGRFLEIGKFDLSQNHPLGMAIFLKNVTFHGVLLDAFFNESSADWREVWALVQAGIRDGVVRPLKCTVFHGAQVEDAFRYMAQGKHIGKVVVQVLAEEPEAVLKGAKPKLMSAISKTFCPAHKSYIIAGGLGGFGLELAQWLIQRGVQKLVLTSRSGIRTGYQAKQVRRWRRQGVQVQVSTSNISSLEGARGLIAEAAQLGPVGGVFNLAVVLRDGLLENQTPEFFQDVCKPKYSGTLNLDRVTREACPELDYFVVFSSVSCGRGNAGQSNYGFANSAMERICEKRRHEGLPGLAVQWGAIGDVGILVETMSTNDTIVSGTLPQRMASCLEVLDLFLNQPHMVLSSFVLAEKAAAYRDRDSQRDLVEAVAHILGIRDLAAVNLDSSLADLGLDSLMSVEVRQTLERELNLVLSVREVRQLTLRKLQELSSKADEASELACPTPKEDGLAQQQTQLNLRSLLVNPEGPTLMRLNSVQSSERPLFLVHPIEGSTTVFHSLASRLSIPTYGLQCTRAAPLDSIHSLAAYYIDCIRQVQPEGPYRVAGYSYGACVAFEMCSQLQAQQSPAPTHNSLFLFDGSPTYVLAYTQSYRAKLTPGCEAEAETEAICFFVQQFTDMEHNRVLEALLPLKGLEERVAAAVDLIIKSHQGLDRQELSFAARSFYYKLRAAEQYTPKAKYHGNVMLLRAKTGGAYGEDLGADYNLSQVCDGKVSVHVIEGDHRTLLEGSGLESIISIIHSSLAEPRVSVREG
In short: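 Purified full-length human FASN (300 ng) incubated 60 min at room temperature with NADPH, [3H]-acetyl-CoA and malonyl-CoA in 100 mM KH2PO4 pH 7.5, 1 mM DTT; compound at 30 μM to 0.01 μM. [3H]-palmitate captured by SPA imaging beads; IC50 from 4-parameter fit, reported as pIC50.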

[2] = test system: A2780 ovarian cells; assay: A2780 Ovarian Cell Proliferation Assay in Lipid Reduced Medium, with Palmitate (control); type: cell-based; conditions: Homo sapiens, A2780; lipid reduced medium, 25 μM palmitate, 96 h, MTT; read-out: Proliferation A2780 with Palmitate pIC50 (converted)
Experimental: (§1) The biological assays described below correspond to comparative assays for ovarian cell proliferation. […] Compounds active in the absence of palmitate would not be expected to be active in the control.
(§2) 2500 cells were seeded in a 96-well clear well plate in 200 μL RPMI1640 with 10% Fetal Calf Serum (Hyclone), and incubated at 37° C., 5% CO2. Blanks were wells without cells. The next day the culture medium was aspirated and replaced by 160 μL culture medium with 10% Lipid-Reduced Serum (LRS, Hyclone). 20 μL test compound (at concentrations of 30 μM, 10 μM, 3 μM, 1 μM, 0.30 μM, 0.10 μM, 0.03 μM and 0.01 μM)/DMSO dilution followed by 20 μL palmitate-BSA solution were added to a final concentrations of 0.2% DMSO, 25 μM palmitate (Sigma, P0500, 10 mM stock solution in ethanol) 0.2% fatty-acid-free BSA, 0.25% ethanol. After 96 h incubation, an MTT assay was performed. The absorbance was measured at 544 nm on a SPECTRAMAX.
A best fit curve was fitted by a minimum sum of squares method, plotting Controlmin versus test compound concentration. From the plot, an IC50 (concentration at which 50% inhibition is achieved) was calculated. pIC50 values, presented in the Table below, were calculated as −log(IC50).
(§3) Representative compounds of the present invention were tested according to the procedure as described in Biological Example 3 above, with results as listed in Table BIO-3, below.

[3] = test system: A2780 ovarian cells; assay: A2780 Ovarian Cell Proliferation Assay in Lipid Reduced Medium, without Palmitate; type: cell-based; conditions: Homo sapiens, A2780; lipid reduced medium, without palmitate, 96 h, MTT; read-out: Proliferation A2780 w/o Palmitate pIC50 (converted)
Experimental: as §1
as §2, with “ethanol-BSA” for “palmitate-BSA”, “DMSO,” for “DMSO, 25 μM palmitate (Sigma, P0500, 10 mM stock solution in ethanol)”, “incubation” for “incubation,”
Raw data generated by the instrument were normalized to % Controlmin values, which were calculated as: % Controlmin=100*(x−mLC)/(mHC−mLC)
where mLC and mHC were the means of the low control wells and high control wells on the plate, after manual exclusion of outliers. A plot of Controlmin versus test compound concentration was fitted to a 4-parameter logistic curve using a non-linear least squares regression method. From the plot, an IC50 (concentration at which 50% inhibition is achieved) was calculated. pIC50 values were calculated as −log(IC50), when IC50 is expressed in molar units.
as §3

[4] = target: T2, FASN Keto-reductase Domain (Homo sapiens, UniProt P49327); assay: Fatty Acid Synthase Keto-Reductase Domain (FASN KR) Inhibition; type: biochemical; conditions: mean where tested more than once; read-out: FASN K-R Domain pIC50 (converted)
T2 construct: 10 μL hFASN enzyme (full length, 300 ng, purified in house) and 360 μM NADPH; made in house
T2 sequence (P49327 whole entry, the tested form may be a part): as the sequence (P49327 whole entry) above
In short: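 Full-length human FASN (300 ng) in 100 mM KH2PO4 pH 7.5 with 360 μM NADPH and 180 mM ethyl acetoacetate (stock); A340 decrease read over 20 min at room temperature.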

SMILES | IC50 [1] [nM] | inhibition at 10 µM [1] [%] | IC50 [2] [nM] | IC50 [3] [nM] | IC50 [4] [nM]
Cc1ccc(C(=O)N2CCC(c3ccc(-c4cnn(C)c4)cc3)CC2)cc1NC(=O)C1CN(C2CCCCC2)C1 [Compound 191, 1-cyclohexyl-N-(2-methyl-5-(4-(4-(1-methyl-1H-pyrazol-4-yl)phenyl)piperidine-1-carbonyl)phenyl)azetidine-3-carboxamide] | 69.2 | 103 | 9330 | 141 | 191
Cc1ccc(C(=O)N2CCC(c3ccc(-c4cnn(C)c4)cc3)CC2)cc1NC(=O)c1cc(F)ccc1C [Compound 137, 5-fluoro-2-methyl-N-(2-methyl-5-(4-(4-(1-methyl-1H-pyrazol-4-yl)phenyl)piperidine-1-carbonyl)phenyl)benzamide] | 55 | 103 | > 10000 | 417 | 240
Cc1ccc(C(=O)N2CCC(c3ccc(-c4cnn(C)c4)cc3)CC2)cc1NC(=O)C1CN(CCC(C)C)C1 [Compound 213, 1-isopentyl-N-(2-methyl-5-(4-(4-(1-methyl-1H-pyrazol-4-yl)phenyl)piperidine-1-carbonyl)phenyl)azetidine-3-carboxamide] | 45.7 | 111 | > 10000 | 64.6 | 195
Cc1ccc(C(=O)N2CCC(c3ccc(-c4cnn(C)c4)cc3)CC2)cc1NC(=O)C1CCN(CCC(C)C)C1 (stereo not drawn) [Compound 195, 1-isopentyl-N-(2-methyl-5-(4-(4-(1-methyl-1H-pyrazol-4-yl)phenyl)piperidine-1-carbonyl)phenyl)pyrrolidine-3-carboxamide] | 69.2 | 101 | 9120 | 110 | 191
Cc1ccc(C(=O)N2CCC(c3ccc(-c4cnn(C)c4)cc3)CC2)cc1NC(=O)[C@H]1CCCN1C [Compound 239, (R)-1-methyl-N-(2-methyl-5-(4-(4-(1-methyl-1H-pyrazol-4-yl)phenyl)piperidine-1-carbonyl)phenyl)pyrrolidine-2-carboxamide] | 123 | 110 | > 10000 | 195 | 457
Cc1ccc(C(=O)N2CCC(c3ccc(-c4cnn(C)c4)cc3)CC2)cc1NC(=O)C1CCN(CC(C)C)CC1 [Compound 179, 1-isobutyl-N-(2-methyl-5-(4-(4-(1-methyl-1H-pyrazol-4-yl)phenyl)piperidine-1-carbonyl)phenyl)piperidine-4-carboxamide] | 26.3 | 108 | > 6170 | 57.5 | 37.2

More lines, now with the values ahead:

IC50 [1] [nM] | inhibition at 10 µM [1] [%] | IC50 [2] [nM] | IC50 [3] [nM] | IC50 [4] [nM] | SMILES
16.2 | 107 | > 10000 | 87.1 | 55 | COc1ccc(C(=O)Nc2cc(C(=O)N3CCC(c4ccc(-c5cnn(C)c5)cc4)CC3)ccc2C)cc1O [Compound 135, 3-hydroxy-4-methoxy-N-(2-methyl-5-(4-(4-(1-methyl-1H-pyrazol-4-yl)phenyl)piperidine-1-carbonyl)phenyl)benzamide]
56.2 | 103 | > 10000 | ~85.1 | 355 | Cc1ccc(C(=O)N2CC(c3ccc(-c4cccnc4N)cc3)C2)cc1NC(=O)c1ccc(Cl)nc1 [Compound 259, N-(5-(3-(4-(2-aminopyridin-3-yl)phenyl)azetidine-1-carbonyl)-2-methylphenyl)-6-chloronicotinamide]
95.5 | 106 | > 10000 | 1410 | 95.5 | Cc1ccc(C(=O)N2CC(c3ccc(-c4ccc5c(cnn5C)c4)cc3)C2)cc1NC(=O)c1ccc(NC(C)C)nc1 [Compound 16, 6-(isopropylamino)-N-(2-methyl-5-(3-(4-(1-methyl-1H-indazol-5-yl)phenyl)azetidine-1-carbonyl)phenyl)nicotinamide]
